The text below walks through data of patent US11213020B2, “Atopic dermatitis model non-human animal and use thereof” (KYUSHU UNIVERSITY, NATIONAL UNIVERSITY CORPORATION, priority 2016, dated 2022).

The subject of experiment [1] is IL-2 gene. The experiment can be described thus: IL-2 gene expression in CD4+ T cells from patients with atopic dermatitis following TCR stimulation (real-time PCR). In kind it is cell-based, human. The following applies: anti-CD3ε stimulation 6 hours, inhibitor at 30 μM, FIG. 45 (b). The source says: (§1) Human peripheral blood samples were collected from atopic dermatitis patients and healthy volunteers in compliance with Institutional Review Board protocols of the facility. Human peripheral blood mononuclear cells (PBMC) were separated by Percoll (GE Healthcare) gradient centrifugation. The CD4^+ T cells were isolated from PBMCs by magnetic sorting by using Dynabeads human CD4 followed by treatment with DETACHaBEAD human CD4 (Life Technologies).
(§2) After being suspended in complete RPMI 1640 medium, CD4^+ T cells (3×10^5 cells/well) were stimulated in a 24-well plate coated with anti-human CD3ε antibody (model “Hit3a”, Tonbo Biosciences) for 6 hours. In some experiments, the CD4^+ T cells were treated with EPAS1 inhibitors, FM19G11 or HIFVII at 30 μM (both from Calbiochem).
(§3) Total RNA was extracted using ISOGEN (trade name, Nippon Gene). After treatment with RNase-free DNase I (Life Technologies), RNA samples were reverse-transcribed with oligo (dT) primers (Life Technologies) and SuperScript III reverse transcriptase (Life Technologies) for amplification by PCR.
(§4) Real-time PCR was performed using ABI PRISM 7,000 Sequence Detection System (trade name, Applied Biosystems) and SYBR Green PCR Master Mix (Applied Biosystems).
(§5) The expression levels of human and mouse target genes were normalized based on expression levels of GAPDH and HPRT. […]

For experiment [2], the system named is IL-31 gene. The experiment can be described thus: IL-31 gene expression in CD4+ T cells from patients with atopic dermatitis following TCR stimulation (real-time PCR). In kind it is cell-based, human. The following applies: anti-CD3ε stimulation 6 hours, inhibitor at 30 μM, FIG. 45 (a), (c).
Excerpt: as §1, §2, §3, §4, §5
A general note: In qPCR the cycle at which signal appears reflects the starting amount.

Experiment [3] has as its system EPAS1 protein. The experiment can be described thus: Western blotting of EPAS1 expression in CD4+ T cells treated with EPAS1 inhibitor. In kind it is cell-based. Particulars: human CD4+ T cells (patients with atopic dermatitis and healthy controls), inhibitor at 30 μM, FIG. 44.
Excerpt: as §1, §2
Cells were lysed in 20 mM Tris-HCl buffer (pH 7.5) containing 1% Triton X-100, 150 mM NaCl, 1 mM EDTA, 1 mM EGTA, 2.5 mM sodium pyrophosphate, 1 mM β-glycerophosphate, 1 mM Na3VO4, and complete protease inhibitors (Roche).
After centrifugation, the supernatants were mixed with an equal volume of 2× sample buffer (125 mM Tris-HCl, 0.01% bromophenacyl bromide, 4% SDS, 20% glycerol, and […] dithiothreitol). Samples were boiled for 5 minutes and analyzed by inmmunoblotting.
The following antibodies were used. […]
A general note: A western blot detects proteins with antibodies after separation by electrophoresis.

SMILES strings stand for the structures.

As to `Cc1ccc(C(=O)COC(=O)c2cccc(NC(=O)c3ccc([N+](=O)[O-])cc3[N+](=O)[O-])c2)cc1` [FM19G11, 3-[(2,4-dinitrobenzoyl)amino]-benzoic acid 2-(4-methylphenyl)-2-oxoethyl ester], the “expression levels of the IL-2 gene following TCR stimulation” value in experiment [1] is “comparable”. The “expression of the IL-31 gene following TCR stimulation” value in experiment [2] is on record as “markedly suppressed”. Further, the “expression level of EPAS1 protein” value in experiment [3] is “markedly decreased”.
